Results reported in patent US11414395B2, “Heterocyclic compounds as modulators of mGluR7” (PRAGMA Therapeutics, priority 2017, dated 2022).

Each compound was assayed against human mGluR7 (Homo sapiens (Human), UniProt Q14831) (assay: Inositol monophosphate production assay (IP1 assay), inhibition of L-AP4 response). Settings: mean IC50 from at least two independent experiments; HEK293 cells transiently transfected with mGluR7, Gqtop and EAAC1; IP1 production vs EC80 L-AP4.
Chain of human mGluR7 (Q14831 35-915): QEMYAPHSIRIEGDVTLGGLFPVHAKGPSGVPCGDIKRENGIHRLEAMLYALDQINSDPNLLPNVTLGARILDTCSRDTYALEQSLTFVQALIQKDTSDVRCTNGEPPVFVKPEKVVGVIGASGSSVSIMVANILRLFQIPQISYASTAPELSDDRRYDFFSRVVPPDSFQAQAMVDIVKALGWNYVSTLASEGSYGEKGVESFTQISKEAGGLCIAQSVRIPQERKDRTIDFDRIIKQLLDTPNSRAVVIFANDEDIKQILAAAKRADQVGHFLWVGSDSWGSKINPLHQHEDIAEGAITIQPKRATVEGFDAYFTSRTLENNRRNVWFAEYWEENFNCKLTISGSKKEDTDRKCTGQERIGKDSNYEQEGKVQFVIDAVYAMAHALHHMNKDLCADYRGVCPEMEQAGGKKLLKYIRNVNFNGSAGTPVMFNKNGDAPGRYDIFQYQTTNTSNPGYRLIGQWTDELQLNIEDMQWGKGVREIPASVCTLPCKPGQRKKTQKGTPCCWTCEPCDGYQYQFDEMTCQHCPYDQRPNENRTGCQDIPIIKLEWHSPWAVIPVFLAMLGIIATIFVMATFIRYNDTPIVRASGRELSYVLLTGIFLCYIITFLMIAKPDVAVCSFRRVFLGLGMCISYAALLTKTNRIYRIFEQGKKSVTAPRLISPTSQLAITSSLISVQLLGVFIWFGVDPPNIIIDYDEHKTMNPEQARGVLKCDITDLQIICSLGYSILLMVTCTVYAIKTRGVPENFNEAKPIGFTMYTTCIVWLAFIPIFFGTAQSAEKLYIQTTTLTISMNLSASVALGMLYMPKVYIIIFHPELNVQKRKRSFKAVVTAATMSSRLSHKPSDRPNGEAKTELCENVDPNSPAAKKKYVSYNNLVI
Format: cell-based
Text: Inositol Monophosphate Production Assay (IP1 Assay):
HEK293 cells were transiently transfected with mGluR7 by electroporation and seeded in a poly-ornithine coated 96-well plate at the density of 150 000 cells/well. To allow the monitoring of receptor activity through measurements of inositol monophosphate (IP1) production, mGluR7 was transfected with a chimeric Gq/Gi protein (Gqtop). and was also co-transfected with EAAC1, a glutamate transporter, to avoid influence of extracellular glutamate. Cells were cultured in Dulbecco's Modified Eagle Medium (DMEM, Invitrogen, Cergy Pontoise, France), supplemented with 10% of Fetal Bovine Serum (FBS). Medium was changed by Glutamax™ (Invitrogen, Cergy Pontoise, France) to reduce extracellular glutamate concentration 3 hours before stimulation
IP1 production was determined using the IP-One HTRF kit (CisBio Bioassays), a competitive immunoassay using cryptate-labeled anti-IP1 antibody and d2-labeled IP, according to the manufacturer's recommendations. All points were realized in triplicate.
Data were analyzed with Prism 6 software (GraphPadSoftware, San Diego, Calif.). Typically, in each experiment, a four-parameter concentration-response curve equation was used to fit data and potency (IC50) is estimated as logarithms (log IC50). Data were calculated as % of the control mGluR7 agonist L-AP4 response, defined as the response that is generated upon addition of an EC80-equivalent concentration of L-AP4.
The Table 2 below represents the mean IC50 obtained from at least two independent experiments.
For `COc1ccc(C)c(C2CCc3c(cnn(-c4ncccn4)c3=O)C2)c1` (stereo not drawn) [Example 80, 6-(5-methoxy-2-methylphenyl)-2-(pyrimidin-2-yl)-5,6,7,8-tetrahydrophthalazin-1(2H)-one], the IC50 was less than 500 nM. Work on `Cc1ccc(C2CCc3c(cnn(-c4cc(Cl)ccn4)c3=O)C2)c(C)c1` (stereo not drawn) [Example 7, 2-(4-chloropyridin-2-yl)-6-(2,4-dimethylphenyl)-5,6,7,8-tetrahydrophthalazin-1(2H)-one] yielded an IC50 of less than 500 nM. For `O=c1c2c(cnn1-c1ncccn1)CC(c1cccc(OC3CC3)c1Cl)CC2` (stereo not drawn) [Example 91, 6-(2-chloro-3-cyclopropoxyphenyl)-2-(pyrimidin-2-yl)-5,6,7,8-tetrahydrophthalazin-1(2H)-one], the IC50 was less than 500 nM. With `Cc1c(OC2CC2)cccc1C1CCc2c(cnn(-c3ncccn3)c2=O)C1` (stereo not drawn) [Example 104, 6-(3-cyclopropoxy-2-methylphenyl)-2-(pyrimidin-2-yl)-5,6,7,8-tetrahydrophthalazin-1(2H)-one] the IC50 was less than 500 nM. Compound `Cc1ccc(C2CCc3c(cnn(-c4cc(C#N)ccn4)c3=O)C2)c(C)c1` (stereo not drawn) [Example 23, 2-(6-(2,4-dimethylphenyl)-1-oxo-5,6,7,8-tetrahydrophthalazin-2(1H)-yl)isonicotinonitrile] has an IC50 of less than 500 nM. `O=c1c2c(cnn1-c1ncccn1)CC(c1cccc(OC3CCCC3)c1)CC2` (stereo not drawn) [Example 86, 6-(3-(cyclopentyloxy)phenyl)-2-(pyrimidin-2-yl)-5,6,7,8-tetrahydrophthalazin-1(2H)-one] gave an IC50 of 500 to 1000 nM. `Cc1ccc(C2CCc3c(cnn(-c4ncc(CN5CCOCC5)cn4)c3=O)C2)c(C)c1` (stereo not drawn) [Example 57, 6-(2,4-dimethylphenyl)-2-(5-(morpholinomethyl)pyrimidin-2-yl)-5,6,7,8-tetrahydrophthalazin-1(2H)-one] showed an IC50 of less than 500 nM. With `CC(=O)Nc1cnc(-n2ncc3c(c2=O)CCC(c2ccc(C)cc2C)C3)nc1` (stereo not drawn) [Example 117, N-(2-(6-(2,4-dimethylphenyl)-1-oxo-5,6,7,8-tetrahydrophthalazin-2(1H)-yl)pyrimidin-5-yl)acetamide] the IC50 was less than 500 nM. `COc1cccc(C2CCc3c(cnn(-c4ccc(O)cn4)c3=O)C2)c1C` (stereo not drawn) [Example 38, 2-(5-hydroxypyridin-2-yl)-6-(3-methoxy-2-methylphenyl)-5,6,7,8-tetrahydrophthalazin-1(2H)-one] was tested, and the IC50 was less than 500 nM. `Cc1ccc(C2CCc3c(cnn(-c4ncccc4C)c3=O)C2)c(C)c1` (stereo not drawn) [Example 20, 6-(2,4-dimethylphenyl)-2-(3-methylpyridin-2-yl)-5,6,7,8-tetrahydrophthalazin-1(2H)-one] gave an IC50 of less than 500 nM. For `COc1cc(C2CCc3c(cnn(-c4ccccn4)c3=O)C2)ccc1C` (stereo not drawn) [Example 64, 6-(3-methoxy-4-methylphenyl)-2-(pyridin-2-yl)-5,6,7,8-tetrahydrophthalazin-1(2H)-one], the IC50 was 1000 to 30000 nM. With `COc1cccc(C2CCc3c(cnn(-c4ncc(OCCO)cn4)c3=O)C2)c1C` (stereo not drawn) [Example 119, 2-(5-(2-hydroxyethoxy)pyrimidin-2-yl)-6-(3-methoxy-2-methylphenyl)-5,6,7,8-tetrahydrophthalazin-1(2H)-one] the IC50 was less than 500 nM. Compound `COc1cccc(C2CCc3c(cnn(-c4ncc(Cl)cn4)c3=O)C2)c1C` (stereo not drawn) [Example 43, 2-(5-chloropyrimidin-2-yl)-6-(3-methoxy-2-methylphenyl)-5,6,7,8-tetrahydrophthalazin-1(2H)-one] has an IC50 of less than 500 nM. `Cc1ccc(C2CCc3c(cnn(-c4cn(C)cn4)c3=O)C2)c(C)c1` (stereo not drawn) [Example 34, 6-(2,4-dimethylphenyl)-2-(1-methyl-1H-imidazol-4-yl)-5,6,7,8-tetrahydrophthalazin-1(2H)-one] gave an IC50 of 1000 to 30000 nM. `Cc1c(OC(C)C)cccc1C1CCc2c(cnn(-c3ncccn3)c2=O)C1` (stereo not drawn) [Example 103, 6-(3-isopropoxy-2-methylphenyl)-2-(pyrimidin-2-yl)-5,6,7,8-tetrahydrophthalazin-1(2H)-one] was tested, and the IC50 was 1000 to 30000 nM. With `CC(O)c1cccc(C2CCc3c(cnn(-c4ccccn4)c3=O)C2)c1` (stereo not drawn) [Example 65, 6-(3-(1-hydroxyethyl)phenyl)-2-(pyridin-2-yl)-5,6,7,8-tetrahydrophthalazin-1(2H)-one] the IC50 was 500 to 1000 nM. For `Cc1ccc(C2CCc3c(cnn(-c4cccc(F)n4)c3=O)C2)c(C)c1` (stereo not drawn) [Example 9, 6-(2,4-dimethylphenyl)-2-(6-fluoropyridin-2-yl)-5,6,7,8-tetrahydrophthalazin-1(2H)-one], the IC50 was less than 500 nM. `COc1cccc(C2CCc3c(cnn(-c4ncc(N5CCCC5)cn4)c3=O)C2)c1C` (stereo not drawn) [Example 111, 6-(3-methoxy-2-methylphenyl)-2-(5-(pyrrolidin-1-yl)pyrimidin-2-yl)-5,6,7,8-tetrahydrophthalazin-1(2H)-one] was tested, and the IC50 was 1000 to 30000 nM. Compound `Cc1ccc(C2CCc3c(cnn(-c4cccc(C#N)n4)c3=O)C2)c(C)c1` (stereo not drawn) [Example 21, 6-(6-(2,4-dimethylphenyl)-1-oxo-5,6,7,8-tetrahydrophthalazin-2(1H)-yl)picolinonitrile] has an IC50 of less than 500 nM. Compound `COc1ccc(C)c(C2CCc3c(cnn(-c4ncc(C)cn4)c3=O)C2)c1` (stereo not drawn) [Example 47, 6-(5-methoxy-2-methylphenyl)-2-(5-methylpyrimidin-2-yl)-5,6,7,8-tetrahydrophthalazin-1(2H)-one] has an IC50 of less than 500 nM. Work on `Cc1ccc(C2CCc3c(cnn(-c4ccccn4)c3=O)C2)c(C)c1` (single isomer, unassigned; (+)) [Example 5, (+)-6-(2,4-dimethyl-phenyl)-2-pyridin-2-yl-5,6,7,8-tetrahydro-2H-phthalazin-1-one] yielded an IC50 of less than 500 nM. `Cc1c(OCc2ccccc2)cccc1C1CCc2c(cnn(-c3ncccn3)c2=O)C1` (stereo not drawn) [Example 106, 6-(3-(benzyloxy)-2-methylphenyl)-2-(pyrimidin-2-yl)-5,6,7,8-tetrahydrophthalazin-1(2H)-one] gave an IC50 of 1000 to 30000 nM. In the case of `Cc1ccc(C2CCc3c(cnn(-c4ncc(N5CCOCC5)cn4)c3=O)C2)c(C)c1` (stereo not drawn) [Example 115, 6-(2,4-dimethylphenyl)-2-(5-morpholinopyrimidin-2-yl)-5,6,7,8-tetrahydrophthalazin-1(2H)-one], the IC50 is reported as less than 500 nM. In the case of `O=c1c2c(cnn1-c1ccccn1)CC(c1cccc(OC3CC3)c1)CC2` (stereo not drawn) [Example 66, 6-(3-cyclopropoxyphenyl)-2-(pyridin-2-yl)-5,6,7,8-tetrahydrophthalazin-1(2H)-one], the IC50 is reported as less than 500 nM. For `Cc1cnc(-n2ncc3c(c2=O)CCC(c2cccc(OC4CC4)c2C)C3)nc1` (single isomer, unassigned; (-)) [Example 132, (−)-6-(3-cyclopropoxy-2-methylphenyl)-2-(5-methylpyrimidin-2-yl)-5,6,7,8-tetrahydrophthalazin-1(2H)-one], the IC50 was less than 500 nM. `COc1cc(C)ccc1C1CCc2c(cnn(-c3ncccn3)c2=O)C1` (stereo not drawn) [Example 70, 6-(2-methoxy-4-methylphenyl)-2-(pyrimidin-2-yl)-5,6,7,8-tetrahydrophthalazin-1(2H)-one] showed an IC50 of 500 to 1000 nM. Compound `COc1cccc(C2CCc3c(cnn(-c4ncccn4)c3=O)C2)c1F` (stereo not drawn) [Example 79, 6-(2-fluoro-3-methoxyphenyl)-2-(pyrimidin-2-yl)-5,6,7,8-tetrahydrophthalazin-1(2H)-one] has an IC50 of less than 500 nM. In the case of `COc1ccc(Cl)c(C2CCc3c(cnn(-c4ncccn4)c3=O)C2)c1` (stereo not drawn) [Example 75, 6-(2-chloro-5-methoxyphenyl)-2-(pyrimidin-2-yl)-5,6,7,8-tetrahydrophthalazin-1(2H)-one], the IC50 is reported as less than 500 nM. Work on `Cc1cc(Cl)ccc1C1CCc2c(cnn(-c3ncccn3)c2=O)C1` (stereo not drawn) [Example 98, 6-(4-chloro-2-methylphenyl)-2-(pyrimidin-2-yl)-5,6,7,8-tetrahydrophthalazin-1(2H)-one] yielded an IC50 of less than 500 nM. Compound `COc1ccc(C(F)(F)F)c(C2CCc3c(cnn(-c4ncccn4)c3=O)C2)c1` (stereo not drawn) [Example 73, 6-(5-methoxy-2-(trifluoromethyl)phenyl)-2-(pyrimidin-2-yl)-5,6,7,8-tetrahydrophthalazin-1(2H)-one] has an IC50 of 1000 to 30000 nM. `COc1nc(-n2ncc3c(c2=O)CCC(c2ccc(C)cc2C)C3)ncc1C` (stereo not drawn) [Example 56, 6-(2,4-dimethylphenyl)-2-(4-methoxy-5-methylpyrimidin-2-yl)-5,6,7,8-tetrahydrophthalazin-1(2H)-one] gave an IC50 of less than 500 nM. Work on `Cc1ccc(C2CCc3c(cnn(-c4ncc(C5CC5)cn4)c3=O)C2)c(C)c1` (stereo not drawn) [Example 109, 2-(5-cyclopropylpyrimidin-2-yl)-6-(2,4-dimethylphenyl)-5,6,7,8-tetrahydrophthalazin-1(2H)-one] yielded an IC50 of less than 500 nM. Work on `COc1cccc(C2CCc3c(cnn(-c4ncc(O)cn4)c3=O)C2)c1C` (stereo not drawn) [Example 45, 2-(5-hydroxypyrimidin-2-yl)-6-(3-methoxy-2-methylphenyl)-5,6,7,8-tetrahydrophthalazin-1(2H)-one] yielded an IC50 of less than 500 nM. `COc1cccc(C2CCc3c(cnn(-c4ncccn4)c3=O)C2)c1C` (stereo not drawn) [Example 40, 6-(3-methoxy-2-methylphenyl)-2-(pyrimidin-2-yl)-5,6,7,8-tetrahydrophthalazin-1(2H)-one] was tested, and the IC50 was less than 500 nM. In the case of `COCCOc1cccc(C2CCc3c(cnn(-c4ncccn4)c3=O)C2)c1C` (stereo not drawn) [Example 105, 6-(3-(2-methoxyethoxy)-2-methylphenyl)-2-(pyrimidin-2-yl)-5,6,7,8-tetrahydrophthalazin-1(2H)-one], the IC50 is reported as 1000 to 30000 nM. In the case of `CCOc1cccc(C2CCc3c(cnn(-c4ncccn4)c3=O)C2)c1C` (stereo not drawn) [Example 101, 6-(3-ethoxy-2-methylphenyl)-2-(pyrimidin-2-yl)-5,6,7,8-tetrahydrophthalazin-1(2H)-one], the IC50 is reported as less than 500 nM.
